The text below walks through data of patent US20250361261A1, “CYCLOPENTYL ADENOSINE DERIVATIVE AND PHARMACEUTICAL USE THEREOF” (priority 2022, published 2025).

For the experiment, the system named is CFA inflammatory pain model. Nature of the experiment: CFA inflammatory pain model, mechanical pain threshold by VonFrey electronic aesthesiometer. The experiment is classed as in vivo, Sprague-Dawley (SD) rats. From the text: Experimental animals: SPF male Sprague-Dawley (SD) rats, weighing 180±30 g, obtained from Shanghai Sippe-Bk Lab Animal Co., Ltd. Experimental samples: Compounds 1, 2, and 3 and CCPA were used to prepare the corresponding pharmaceutical compositions according to the following formulation amounts and method. [table] Preparation method: Formulation amounts of compounds 1, 2, and 3 and CCPA were separately weighed out, added to a proper amount of tert-butanol/water mixed solution, and dissolved by stirring. Then formulation amounts of dimyristoylphosphatidylcholine (DMPC) and cholesterol were added and dissolved by stirring. The above solutions were made up to volume (25-40 mL), added to vials, and lyophilized in a lyophilizer for later use. When used, the lyophilizates were dissolved in normal saline to 1 mg/mL, 2 mg/mL, 4 mg/mL, and 8 mg/mL. SD rats, 6 to 8-week-old and weighing 150 g-200 g, were divided into a control group, a model control group, and an administration group. A CFA inflammatory pain model was obtained 24 h after 100 μL of complete Freund's adjuvant was injected into the soles of the left feet of the rats in the model control group and the administration group. The injection was performed at left Zusanli, and the injection volume was 100 μL. [table] Note: For the control group, 100 μL of normal saline was injected into the soles of the feet. For the model control group, 100 μL of normal saline was injected into Zusanli after the model was successfully established. A VonFrey electronic aesthesiometer was used to measure the pain threshold, and mechanical pain was used as an evaluation index. Observations of the basal pain threshold were started 1 day before the model was established and ended 14 days after the model was established. Pain thresholds before and after administration for different groups of animals were plotted using Graph Pad Prism 8.3.0 software. Based on the dose-response curve 48 h after administration, the EC50 and EC90 were obtained through fitting.

On to `CCCCCCCCCCCCCCC(=O)OC[C@H]1O[C@@H](n2cnc3c(NC4CCCC4)nc(Cl)nc32)[C@H](O)[C@@H]1O` [Compound 1, ((2R,3S,4R,5R)-5-(2-Chloro-6-(cyclopentylamino)-9H-purin-9-yl)-3,4-dihydroxytetrahydrofuran-2-yl)methyl pentadecanoate], for which, for the setting “compared to CCPA”, the “EC50 change compared to CCPA” value is recorded as 4 fold and the “EC90 change compared to CCPA” value worked out at 6 fold. Also, where the note is “compared to compound 2”, the “EC50 change compared to compound 2” value is roughly 3 fold and the “EC90 change compared to compound 2” value is roughly 3 fold.
